We go through four compounds from US20190365799A1, “THERAPIES FOR THE TREATMENT OF LIDOCAINE-INEFFECTIVE AND HYPOKALEMIC CONDITIONS” (AlkaliDx, Inc., priority 2016, published 2019).

In series [1] the test system is sodium channel in the sensory neurons. To be noted: local anesthesia; Rozanski et al. 1988, Nakai et al. 2000; cited from earlier work.
For series [2] the following is noted: oral potassium salt therapy, general statement; cited from earlier work.
Series [3] deals with patients with Lidocaine-Ineffective Conditions. Kind of series: Off-label treatment of patients with lidocaine-ineffective conditions with potassium or potassium-elevating drugs (clinical experience, patient reports). The format is in vivo, human. The method, then:
The condition is a chronic one, and patients benefit from increasing the serum potassium both prophylactically and acutely. I have discovered that patients with such “Lidocaine-Ineffective Conditions” that are treated with the compositions and methods of this invention (e.g., potassium supplementation or potassium-elevating agents) derive a significant therapeutic benefit.
Based on our research and discussions with us, patients with lidocaine-ineffective conditions have been treated with potassium and potassium-elevating drugs under the care of their personal physician in off-label use.

Where [4] appears, read: clinical experience with 15 patients, potassium supplementation.

Molecules are shown by their SMILES. “Also recorded” adds a separate entry of the source.

`CCN(CC)CC(=O)Nc1c(C)cccc1C` [lidocaine]: the “share of the population for which lidocaine is ineffective” value in series [1] is listed as 2.7-11%.
On to `[Cl-].[K+]` [potassium chloride], for which the gastric tolerability result in series [2] is “usually results in stomach upset and gastric pain; also recorded: regularly causes gastric upset”.
In the case of `O=C([O-])[C@H](O)[C@@H](O)[C@H](O)[C@H](O)CO.[K+]` [potassium gluconate], the gastric tolerability entry in series [2] was “better tolerated”.
On to `[K+]` [potassium], for which, in series [3] (setting [4]), the nervous system sensitivity entry is “restore the normal level of nervous system sensitivity” and the “symptoms of ADHD” value was “suppresses the symptoms of ADHD”. Further, the “patient-reported effect of treatment” value in series [3] (off-label use under care of personal physician, anecdotal patient reports) is given as “nothing short of miraculous; also recorded: stopped fighting with their teacher”. In series [3] (off-label use, same dose, middle-aged person), the “persistence of effect over time” value is reported as “continued to be as effective, at the same dose, after many months”.
